Like-named read-outs stand apart in the source and are kept apart here. Positions of bridges follow the written chain, without caps; N, C: chain ends. Non-standard residues stand in square brackets, D forms with d. Residues, ends and D or L forms follow the SMILES beside them. ξ: configuration not given here. Phe(2,4-Cl2) = N[C@@H](Cc1ccc(Cl)cc1Cl)C(=O)O; Phe(3-Cl) = N[C@@H](Cc1cccc(Cl)c1)C(=O)O; Bta = N[C@@H](Cc1csc2ccccc12)C(=O)O; Hyp = O=C(O)[C@@H]1C[C@@H](O)CN1; NMeF = CN[C@@H](Cc1ccccc1)C(=O)O; dNMeNle = CCCC[C@@H](NC)C(=O)O; NMeNle = CCCC[C@H](NC)C(=O)O; NMeM = CN[C@@H](CCSC)C(=O)O; NMeA = CN[C@@H](C)C(=O)O; dDap = NC[C@@H](N)C(=O)O; Dab = NCC[C@H](N)C(=O)O; Dap = NC[C@H](N)C(=O)O; Aib = CC(C)(N)C(=O)O; ξP = O=C(O)C1CCCN1; ξC = NC(CS)C(=O)O; Sar = CNCC(=O)O
Legend:
[1] = biological target: T1, Human PD-L1/PD-1 (Homo sapiens, UniProt Q9NZQ7); experiment: HTRF PD-1-Ig/PD-L1-His binding assay (human PD-L1)
T1 construct: made in house; host or cells: HEK293T
T1 sequence (Q9NZQ7 with tags, fused parts or gaps): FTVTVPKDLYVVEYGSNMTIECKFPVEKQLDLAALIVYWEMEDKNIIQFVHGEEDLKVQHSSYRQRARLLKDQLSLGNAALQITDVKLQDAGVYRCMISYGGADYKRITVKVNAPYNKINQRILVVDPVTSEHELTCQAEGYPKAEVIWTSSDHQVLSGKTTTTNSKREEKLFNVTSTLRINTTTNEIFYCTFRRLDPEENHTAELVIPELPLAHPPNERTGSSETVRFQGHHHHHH
Outline: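 Readout: time-resolved FRET between Eu cryptate-labeled anti-Ig (1 nM final) and APC-labeled anti-His (20 nM final) antibodies. These detect interaction of Fc-fused PD-1 with His-tagged human PD-L1 in dPBS containing 0.1% BSA and 0.05% Tween-20.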

[2] = biological target: T2, LK35.2-hPD-L1 cells / PE-labeled PD-1-Ig (Homo sapiens, UniProt Q9NZQ7); experiment: LK35.2-hPD-L1 cell binding high-content screening assay; format: cell-based
T2 construct: expressed in transfected cells; host or cells: LK35.2 mouse B cell line
T2 sequence (Q9NZQ7 19-290): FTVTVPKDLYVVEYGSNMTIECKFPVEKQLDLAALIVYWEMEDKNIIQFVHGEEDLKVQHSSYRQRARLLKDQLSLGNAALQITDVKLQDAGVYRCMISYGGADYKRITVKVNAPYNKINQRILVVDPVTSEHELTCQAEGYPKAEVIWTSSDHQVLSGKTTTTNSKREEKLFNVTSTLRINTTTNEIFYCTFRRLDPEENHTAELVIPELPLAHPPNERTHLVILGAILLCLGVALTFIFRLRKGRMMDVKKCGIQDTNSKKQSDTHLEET
Outline: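 Using overnight-cultured LK35.2-hPD-L1 mouse B cells, compound was co-incubated with phycoerythrin-tagged human PD-1-Ig (final 1 nM) at 37 °C for one hour. Unbound label was removed by triple dPBS washing prior to high-content image acquisition and analysis.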

[3] = cluster symbol, read-out: HTRF IC50 cluster
[4] = cell binding assay, cell line not given, cluster symbol, read-out: CBA IC50 cluster
[5] = cluster symbol, cell line of CBA not given (LK35.2-hPD-L1 or 293T-hPD-L1), read-out: CBA IC50 cluster

SMILES | IC50 [1, 3] [nM] | IC50 [2, 4] [nM] | IC50 [2, 5] [nM] | IC50 ([1]; value given instead of cluster, read-out: HTRF IC50 value) [nM] | IC50 ([2]; cell binding assay, cell line not given, value given instead of cluster, read-out: CBA IC50 value) [nM]
CCCC[C@H]1C(=O)N(C)[C@@H](CCCC)C(=O)N[C@@H](CCCNC(=N)N)C(=O)NC(C(=O)NCC(N)=O)CSCC(=O)N[C@@H](Cc2ccc(O)cc2)C(=O)N(C)[C@@H](C)C(=O)N[C@@H](CC(N)=O)C(=O)N2CCC[C@H]2C(=O)N[C@@H](CO)C(=O)N[C@@H](CC(C)C)C(=O)N2C[C@H](O)C[C@H]2C(=O)N[C@@H](Cc2c[nH]c3ccccc23)C(=O)N[C@@H](CO)C(=O)N[C@@H](Cc2c[nH]c3ccccc23)C(=O)N1C (stereo partly shown) [Example 9074] ({CH2CO}-Y[NMeA]NPSL[Hyp]WSW[NMeNle][NMeNle]R[ξC]G-NH2; thioether N-14) | 0.385 to 6.74 | 0.158 to 4.71 |  |  | 
CCCC[C@H]1C(=O)N(C)[C@@H](CCCC)C(=O)N[C@@H](CCCNC(=N)N)C(=O)N[C@H](C(=O)NCC(=O)NCC(N)=O)CSCC(=O)N[C@@H](Cc2ccc(O)cc2)C(=O)N(C)[C@@H](C)C(=O)N[C@@H](CC(N)=O)C(=O)N2CCC[C@H]2C(=O)N[C@@H](Cc2cnc[nH]2)C(=O)N[C@@H](CC(C)C)C(=O)N2CCC[C@H]2C(=O)N[C@@H](Cc2c[nH]c3ccccc23)C(=O)N[C@@H](CO)C(=O)N[C@@H](Cc2c[nH]c3ccccc23)C(=O)N1C [Example 6018] ({CH2CO}-Y[NMeA]NPHLPWSW[NMeNle][NMeNle]RCGG-NH2; thioether N-14) | 0.385 to 6.74 | 0.158 to 4.71 |  |  | 
CCCC[C@H]1C(=O)N(C)[C@@H](CCCC)C(=O)N[C@@H](CCCNC(=N)N)C(=O)NC(C(=O)NCC(N)=O)CSCC(=O)N[C@@H](Cc2ccc(O)cc2)C(=O)N(C)[C@@H](CO)C(=O)N[C@@H](CC(N)=O)C(=O)N2CCC[C@H]2C(=O)N[C@@H](Cc2cnc[nH]2)C(=O)N[C@@H](CC(C)C)C(=O)N2C[C@H](O)C[C@H]2C(=O)N[C@@H](Cc2c[nH]c3ccccc23)C(=O)N[C@@H](CO)C(=O)N[C@@H](Cc2c[nH]c3ccccc23)C(=O)N1C (stereo partly shown) [Example 9036] | 0.385 to 6.74 | 0.158 to 4.71 |  |  | 
CCCC[C@@H]1C(=O)N(C)[C@H](CCCC)C(=O)N[C@@H](C)C(=O)N[C@@H](C(=O)NCC(N)=O)CSCC(=O)N[C@@H](Cc2ccc(O)cc2)C(=O)N2CCCC2C(=O)N[C@H](CC(N)=O)C(=O)N2CCC[C@H]2C(=O)N[C@H](CN)C(=O)N[C@@H](CCC(N)=O)C(=O)N2CCCC2C(=O)N[C@H](Cc2c[nH]c3ccccc23)C(=O)N[C@@H](CCN)C(=O)N[C@@H](Cc2c[nH]c3ccccc23)C(=O)N1C (stereo partly shown) [Example 1211] ({CH2CO}-Y[ξP][dN]P[dDap]Q[ξP][dW][Dab]W[dNMeNle][dNMeNle]A[dC]G-NH2; thioether N-14) | 6.76 to 30.3 |  | > 74.3 |  | 
CCCC[C@H]1C(=O)N(C)[C@@H](CCCC)C(=O)N[C@@H](CCCNC(=N)N)C(=O)N[C@H](C(=O)NCC(N)=O)CSCC(=O)N[C@@H](Cc2ccccc2)C(=O)N(C)[C@@H](C)C(=O)N[C@@H](CC(N)=O)C(=O)N2CCC[C@H]2C(=O)N[C@@H](Cc2cnc[nH]2)C(=O)N[C@@H](CC(C)C)C(=O)N(C)CC(=O)N[C@@H](Cc2c[nH]c3ccccc23)C(=O)NC(C)(C)C(=O)N[C@@H](Cc2c[nH]c3ccccc23)C(=O)N1C [Example 1116] ({CH2CO}-F[NMeA]NPHL[Sar]W[Aib]W[NMeNle][NMeNle]RCG-NH2; thioether N-14) | > 30.5 |  | > 74.3 |  | 
CCCC[C@H]1C(=O)N(C)CC(=O)N[C@@H](CC(=O)O)C(=O)N[C@@H](C(C)C)C(=O)N(C)[C@@H](Cc2ccccc2)C(=O)N[C@@H](Cc2ccc(O)cc2)C(=O)N(C)CC(=O)N[C@@H](Cc2ccc(Cl)cc2Cl)C(=O)N[C@@H](Cc2ccc(O)cc2)C(=O)N[C@@H](CC(C)C)C(=O)N[C@H](C(=O)NCC(N)=O)CSCC(=O)N[C@@H](Cc2ccccc2)C(=O)N(C)[C@@H](Cc2ccccc2)C(=O)N1C [Example 3549] ({CH2CO}-F[NMeF][NMeNle][Sar]DV[NMeF]Y[Sar][Phe(2,4-Cl2)]YLCG-NH2; thioether N-13) |  |  |  | 272 | 728
CCCC[C@H]1C(=O)N(C)[C@@H](CCOC)C(=O)N[C@@H](CCCNC(=N)N)C(=O)NC(C(=O)NCC(N)=O)CSCC(=O)N[C@@H](Cc2ccc(O)cc2)C(=O)N(C)[C@@H](C)C(=O)N[C@@H](CC(N)=O)C(=O)N2CCC[C@H]2C(=O)N[C@@H](Cc2cnc[nH]2)C(=O)N[C@@H](CC(C)C)C(=O)N2C[C@H](O)C[C@@H]2C(=O)N[C@@H](Cc2c[nH]c3ccccc23)C(=O)N[C@@H](CO)C(=O)N[C@@H](Cc2c[nH]c3ccccc23)C(=O)N1C (stereo partly shown) [Example 9003] | 0.385 to 6.74 | 0.158 to 4.71 |  |  | 
CCCC[C@H]1C(=O)N(C)CC(=O)N[C@@H](CC(=O)O)C(=O)N[C@@H](Cc2ccccc2)C(=O)N(C)[C@@H](Cc2ccccc2)C(=O)N[C@@H](Cc2ccc(O)cc2)C(=O)N(C)CC(=O)N[C@@H](Cc2c[nH]c3ccccc23)C(=O)N[C@@H](Cc2ccc(O)cc2)C(=O)N[C@@H](CC(C)C)C(=O)N[C@H](C(=O)NCC(N)=O)CSCC(=O)N[C@@H](Cc2ccccc2)C(=O)N(C)[C@@H](Cc2ccccc2)C(=O)N1C [Example 3543] (HELM PEPTIDE1{[O=C(C[*:3])[*:2]].F.[meF].[CCCC[C@@H](C(=O)[*:2])N(C)[*:1]].[Sar].D.F.[meF].Y.[Sar].W.Y.L.C.G.[am]}$PEPTIDE1,PEPTIDE1,1:R3-14:R3$$$V2.0) | > 30.5 | > 74.3 |  |  | 
CCCC[C@H]1C(=O)N(C)[C@@H](CCCC)C(=O)N[C@@H](CCCNC(=N)N)C(=O)NC(C(=O)NCC(N)=O)CSCC(=O)N[C@@H](Cc2ccc(O)cc2)C(=O)N(C)[C@@H](C)C(=O)N[C@@H](CC(N)=O)C(=O)N2CCC[C@H]2C(=O)N[C@@H](Cc2cnc[nH]2)C(=O)N[C@@H](CC(N)=O)C(=O)N2C[C@H](O)C[C@H]2C(=O)N[C@@H](Cc2c[nH]c3ccccc23)C(=O)N[C@@H](CO)C(=O)N[C@@H](Cc2c[nH]c3ccccc23)C(=O)N1C (stereo partly shown) [Example 9065] ({CH2CO}-Y[NMeA]NPHN[Hyp]WSW[NMeNle][NMeNle]R[ξC]G-NH2; thioether N-14) | 0.385 to 6.74 | 0.158 to 4.71 |  |  | 
CCCC[C@H]1C(=O)N(C)CC(=O)N[C@@H](CC(=O)O)C(=O)N[C@@H](C(C)C)C(=O)N(C)[C@@H](Cc2ccccc2)C(=O)N[C@@H](Cc2ccc(O)cc2)C(=O)N2CCC[C@@H]2C(=O)N[C@@H](Cc2c[nH]c3ccccc23)C(=O)N[C@@H](Cc2ccc(O)cc2)C(=O)N[C@@H](CC(C)C)C(=O)N[C@H](C(N)=O)CSCC(=O)N[C@@H](Cc2cccc(Cl)c2)C(=O)N(C)[C@@H](Cc2ccccc2)C(=O)N1C [Example 3166] ({CH2CO}-[Phe(3-Cl)][NMeF][NMeNle][Sar]DV[NMeF]Y[dP]WYLC-NH2; thioether N-13) | 6.76 to 30.3 |  | 0.158 to 4.71 |  | 
CCCC[C@H]1C(=O)N(C)[C@@H](COc2cccc(C)c2)C(=O)N[C@@H](CC(C)C)C(=O)N[C@H](C(=O)NCC(N)=O)CSCC(=O)N[C@@H](Cc2ccc(O)cc2)C(=O)N(C)[C@@H](C)C(=O)N[C@@H](CC(N)=O)C(=O)N2CCC[C@H]2C(=O)N[C@@H](CN)C(=O)N[C@@H](CC(C)C)C(=O)N2C[C@H](O)C[C@H]2C(=O)N[C@@H](Cc2c[nH]c3ccccc23)C(=O)N[C@@H](CCN)C(=O)N[C@@H](Cc2c[nH]c3ccccc23)C(=O)N1C [Example 6029] | 0.385 to 6.74 | 4.78 to 72.9 |  |  | 
CCCC[C@H]1C(=O)N(C)[C@@H](CCSC)C(=O)N[C@@H](CCCNC(=N)N)C(=O)NC(C(=O)NCC(N)=O)CSCC(=O)N[C@@H](Cc2ccc(O)cc2)C(=O)N(C)[C@@H](C)C(=O)N[C@@H](CC(N)=O)C(=O)N2CCC[C@H]2C(=O)N[C@@H](CN)C(=O)N[C@@H](CC(C)C)C(=O)N2C[C@H](O)C[C@H]2C(=O)N[C@@H](Cc2c[nH]c3ccccc23)C(=O)N[C@@H](CO)C(=O)N[C@@H](Cc2csc3ccccc23)C(=O)N1C (stereo partly shown) [Example 9084] ({CH2CO}-Y[NMeA]NP[Dap]L[Hyp]WS[Bta][NMeNle][NMeM]R[ξC]G-NH2; thioether N-14) | 0.385 to 6.74 | 0.158 to 4.71 |  |  | 
CCCC[C@H]1C(=O)N(C)[C@@H](CCSC)C(=O)N[C@@H](C)C(=O)NC(C(=O)NCC(N)=O)CSCC(=O)N[C@@H](Cc2ccc(O)cc2)C(=O)N(C)[C@@H](C)C(=O)N[C@@H](CC(N)=O)C(=O)N2CCC[C@H]2C(=O)N[C@@H](CN)C(=O)N[C@@H](CC(C)C)C(=O)N2CCC[C@H]2C(=O)N[C@@H](Cc2c[nH]c3ccccc23)C(=O)N[C@@H](CO)C(=O)N[C@@H](Cc2csc3ccccc23)C(=O)N1C (stereo partly shown) [Example 9086] ({CH2CO}-Y[NMeA]NP[Dap]LPWS[Bta][NMeNle][NMeM]A[ξC]G-NH2; thioether N-14) | 0.385 to 6.74 | 0.158 to 4.71 |  |  | 
CCCC[C@H]1C(=O)N(C)[C@@H](CCCC)C(=O)N[C@@H](CN)C(=O)N[C@H](C(=O)NCC(N)=O)CSCC(=O)N[C@@H](Cc2ccc(O)cc2)C(=O)N(C)[C@@H](C)C(=O)N[C@@H](CC(N)=O)C(=O)N2CCC[C@H]2C(=O)N[C@@H](Cc2cnc[nH]2)C(=O)N[C@@H](CC(C)C)C(=O)N2C[C@H](O)C[C@H]2C(=O)N[C@@H](Cc2c[nH]c3ccccc23)C(=O)N[C@@H](CO)C(=O)N[C@@H](Cc2c[nH]c3ccccc23)C(=O)N1C [Example 1132] | 6.76 to 30.3 |  | 0.158 to 4.71 |  | 
